Publication PMC3127977, “No relevant cardiac, pharmacokinetic or safety interactions between roflumilast and inhaled formoterol in healthy subjects: an open-label, randomised, actively controlled study” (BMC Clinical Pharmacology, 2011)

Test system: healthy subjects
Assay: Transthoracic impedance cardiography (ZCG) and systolic time intervals in healthy men; oral roflumilast 500 μg once daily, inhaled formoterol 24 μg twice daily
Details: Regimen A
Procedure: For Regimen A, subjects received 500 μg oral roflumilast once daily (daily dose: one tablet of roflumilast 500 μg) from the morning of Day 2 to the morning of Day 18. […] For Regimen B, subjects received 24 μg formoterol for oral inhalation delivered by a DPI device (Foradil® P) twice daily, once in the morning and once in the evening from the morning of Day 2 to the evening of Day 18.
Cardiovascular effects were evaluated non-invasively by means of ECGs (cardiac rhythm, intra-cardiac conduction and ventricular repolarisation), oscillometric blood pressure and transthoracic impedance cardiography (ZCG; systolic time intervals, contractility indices and estimates of stroke volume and cardiac output). Cardiovascular assessments (oscillometric blood pressure, pulse rate, 12-lead ECG, and three-lead ZCG) were recorded before dosing and at 10, 20, 40 and 60 minutes, and at 2, 3, 4, 5, 6, 7 and 8 hours after morning dosing. […] All cardiovascular measurements were carried out after the subjects had been recumbent for at least 10 minutes; they generally stayed in bed from 1 hour before until 8 hours after morning dosing.
Systolic time intervals (STIs) and ZCG estimates of the systolic cardiac pump performance were derived from the simultaneous registration of a one-lead ECG, a phonocardiogram (PCG), and the rate of change of the transthoracic impedance (dZ/dt) to an AC current applied through the thoracic cage (CARDIODYNAGRAPH; Diefenbach GmbH, Wiesbaden, Germany). Tracings were captured and stored digitally during the study and subsequently analysed after the study by displaying the analogue ECG, PCG and ZCG signals on a computer screen. The relevant signal amplitudes and time intervals were delineated manually by operator-steered cursors; measurements were made for at least 10 artefact-free consecutive cardiac cycles. From these tracings, the following variables were derived by direct measurement: RR interval (ms), total electromechanic systole (QS2 [ms]), ventricular ejection time (VET [ms]), baseline transthoracic impedance (Z0 [Ω]), and maximum negative velocity of transthoracic impedance changes during the cardiac cycle (dZ/dtmax [Ω/s]). These variables were analysed for the 10 cycles and their means were used in the calculations of the following variables: heart rate (HR [bpm]), pre-ejection period (PEP [ms] = QS2 - VET), HR-corrected STIs (STIc and STIi according to Weissler et al.), ZCG estimates of stroke volume (SV [mL] according to Kubicek's equation [37] using the equation of Geddes and Sadler for the specific resistance of blood), cardiac output (CO [mL/min]), and total peripheral resistance (TPR [dyn.s.cm^-5]). For the latter variable, the mean blood pressure (MBP [mmHg]) was used as calculated according to Wezler and Böger from the systolic blood pressure (mmHg) and the diastolic blood pressure (mmHg).
ZCG analysis was carried out by a single analyst who was blinded with regard to subject, study regimen, profiling day within regimen, and time during the day.

O=C(Nc1c(Cl)cncc1Cl)c1ccc(OC(F)F)c(OCC2CC2)c1 [Roflumilast, 3-cyclopropylmethoxy-N-(3,5-dichloropyridin-4-yl)-4-(difluoromethoxy)benzamide]
CO, Day 1-matched post-dose maximum dmax (δ), median (Day 11 (R)): 1.6 L/min | CO, Day 1-matched post-dose minimum dmin (δ), median (Day 11 (R)): -1.7 L/min | CO, untransformed post-dose maximum dmax (U), median (Day 11 (R)): 10.6 L/min | CO, untransformed post-dose minimum dmin (U), median (Day 11 (R)): 8.3 L/min | CO, untransformed pre-dose morning value, median (Day 11 (R)): 9.1 L/min | HR, Day 1-matched post-dose maximum dmax (δ), median (Day 11 (R)): 9 bpm | HR, Day 1-matched post-dose minimum dmin (δ), median (Day 11 (R)): -4 bpm | HR, untransformed post-dose maximum dmax (U), median (Day 11 (R)): 64 bpm | HR, untransformed post-dose minimum dmin (U), median (Day 11 (R)): 54 bpm | HR, untransformed pre-dose morning value, median (Day 11 (R)): 63 bpm | PEP, Day 1-matched post-dose maximum dmax (δ), median (Day 11 (R)): 25 ms | PEP, Day 1-matched post-dose minimum dmin (δ), median (Day 11 (R)): -27 ms | PEP, untransformed post-dose maximum dmax (U), median (Day 11 (R)): 121 ms | PEP, untransformed post-dose minimum dmin (U), median (Day 11 (R)): 86 ms | PEP, untransformed pre-dose morning value, median (Day 11 (R)): 94 ms | QS2, Day 1-matched post-dose maximum dmax (δ), median (Day 11 (R)): 19 ms | QS2, Day 1-matched post-dose minimum dmin (δ), median (Day 11 (R)): -34 ms | QS2, untransformed post-dose maximum dmax (U), median (Day 11 (R)): 454 ms | QS2, untransformed post-dose minimum dmin (U), median (Day 11 (R)): 410 ms | QS2, untransformed pre-dose morning value, median (Day 11 (R)): 423 ms | TPR, Day 1-matched post-dose maximum dmax (δ), median (Day 11 (R)): 126 dyn.s.cm^-5 | TPR, Day 1-matched post-dose minimum dmin (δ), median (Day 11 (R)): -128 dyn.s.cm^-5 | TPR, untransformed post-dose maximum dmax (U), median (Day 11 (R)): 934 dyn.s.cm^-5 | TPR, untransformed post-dose minimum dmin (U), median (Day 11 (R)): 733 dyn.s.cm^-5 | TPR, untransformed pre-dose morning value, median (Day 11 (R)): 838 dyn.s.cm^-5 | dZ/dt, Day 1-matched post-dose maximum dmax (δ), median (Day 11 (R)): 0.28 Ω/s | dZ/dt, Day 1-matched post-dose minimum dmin (δ), median (Day 11 (R)): -0.10 Ω/s | dZ/dt, untransformed post-dose maximum dmax (U), median (Day 11 (R)): 1.93 Ω/s | dZ/dt, untransformed post-dose minimum dmin (U), median (Day 11 (R)): 1.56 Ω/s | dZ/dt, untransformed pre-dose morning value, median (Day 11 (R)): 1.67 Ω/s | CO, dmax (U), point estimate (95% CI) of difference between days (Day 11-Day 1): 0.2 (-1.1 to 1.4) L/min | CO, dmin (U), point estimate (95% CI) of difference between days (Day 11-Day 1): -0.4 (-1.2 to 0.4) L/min | CO, untransformed pre-dose morning value, point estimate (95% CI) of difference between days (Day 11-Day 1): -0.6 (-1.7 to 0.5) L/min | HR, dmax (U), point estimate (95% CI) of difference between days (Day 11-Day 1): 3 (-4 to 6) bpm | HR, dmin (U), point estimate (95% CI) of difference between days (Day 11-Day 1): 4 (1 to 7) bpm | HR, untransformed pre-dose morning value, point estimate (95% CI) of difference between days (Day 11-Day 1): 3 (-5 to 8) bpm | PEP, dmax (U), point estimate (95% CI) of difference between days (Day 11-Day 1): 3 (-7 to 11) ms | PEP, dmin (U), point estimate (95% CI) of difference between days (Day 11-Day 1): 0 (-9 to 13) ms | PEP, untransformed pre-dose morning value, point estimate (95% CI) of difference between days (Day 11-Day 1): -3 (-17 to 10) ms | QS2, dmax (U), point estimate (95% CI) of difference between days (Day 11-Day 1): -1 (-11 to 11) ms | QS2, dmin (U), point estimate (95% CI) of difference between days (Day 11-Day 1): -9 (-21 to 8) ms | QS2, untransformed pre-dose morning value, point estimate (95% CI) of difference between days (Day 11-Day 1): -10 (-21 to 2) ms | TPR, dmax (U), point estimate (95% CI) of difference between days (Day 11-Day 1): 47 (-124 to 178) dyn.s.cm^-5 | TPR, dmin (U), point estimate (95% CI) of difference between days (Day 11-Day 1): -18 (-96 to 43) dyn.s.cm^-5 | TPR, untransformed pre-dose morning value, point estimate (95% CI) of difference between days (Day 11-Day 1): 14 (-98 to 121) dyn.s.cm^-5 | dZ/dt, dmax (U), point estimate (95% CI) of difference between days (Day 11-Day 1): -0.05 (-0.25 to 0.15) Ω/s | dZ/dt, dmin (U), point estimate (95% CI) of difference between days (Day 11-Day 1): 0.03 (-0.18 to 0.20) Ω/s | dZ/dt, untransformed pre-dose morning value, point estimate (95% CI) of difference between days (Day 11-Day 1): -0.06 (-0.29 to 0.16) Ω/s | effect on cardiovascular function (ZCG/STI variables) (roflumilast alone): little effect
